# Source: publication PMC6931124, “NPY1R-targeted peptide-mediated delivery of a dual PPARα/γ agonist to adipocytes enhances adipogenesis and prevents diabetes progression” (Molecular Metabolism, 2019)
# Legend:
# Serum leptin = assay type: in vivo; details: db/db mice, 2.5 μmol/kg/day, 8 days; ELISA; n = 5
# Description: All of the experiments were performed according to the animal ethical laws of the state Saxony, Germany, and were approved by the local animal ethics review board (Landesdirektion Sachsen, Leipzig, Germany). Female db/db mice 12–15 weeks of age were purchased from Taconic (Denmark) and housed in groups of 5 in temperature- and humidity-controlled facilities in a 12 h:12 h light–dark cycle and had free access to tap water and food (regular chow, Sniff, Soest, Germany). Three out of seven groups served as controls (N = 15, see Table 1). The 5 db/db mice were untreated and 10 db/db mice were vehicle treated either orally or intraperitoneally (i.p.). One additional group (n = 5) of lean C57BL/6NTac mice was used as a metabolically healthy control group. […]
# Serum insulin (mouse insulin ELISA, Mercodia, Uppsala, Sweden), adiponectin (mouse adiponectin ELISA, AdipoGen, San Diego, CA, USA), leptin (mouse leptin ELISA, Crystal Chem, Downers Grove, IL, USA), and Mcp-1 (mouse/rat CCL2/JE/Mcp-1 Quantikine ELISA, R&D Systems, Minneapolis, MN, USA) levels were analyzed via ELISA according to the manufacturer's instructions. Serum concentrations of TG, FFA, and cholesterol were measured by an automatic chemical analyzer at the Institute of Laboratory Medicine and Clinical Chemistry.
# PPARγ = experiment: PPAR reporter gene assay (luciferase); assay type: cell-based
# Description: HEK293 cells stably expressing NPY1R C-terminally fused to eYFP were seeded into white 96-well plates, grown to 70–80% confluence, and transfected using Lipofectamine 2000 transfection reagent according to the manufacturer's protocol. For luciferase reporter gene assays, 250 ng reporter plasmid, positive control plasmid or negative control plasmid (Cignal PPAR Reporter (luc) Kit), 250 ng PPARγ expression vector, and 250 ng RXRα expression vector were applied in addition to 0.75 μl of Lipofectamine 2000 transfection reagent per well. For selectivity assays, HEK293 cells without stable NPY1R-eYFP transfection and HEK293 NPY1R-eYFP cells without PPARγ transfection were used. After 24 h of transfection, the cells were treated with tesa or peptides for an additional 24 h. […] Luciferase assays were performed using the Dual-Luciferase System Kit according to the manufacturer's instructions. The relative firefly luciferase activity was normalized by the corresponding Renilla luciferase activity, the luciferase activity of the cells transfected with the negative control plasmid, and the DMSO vehicle control. The assays were performed in at least three independent experiments.
# Furthermore, plasmids coding for PPARγ and RXRα were transfected. Because PPARγ binds as a heterodimer with RXRα to PPRE-responsive elements, RXRα is needed for PPARγ activity.
# Figure 5 Transcriptional activity of the PPAR reporter gene. […] The depicted values represent mean ± SEM from n ≥ 3 independent experiments. All measurements were normalized to the transcriptional activity of DMSO-treated cells expressing all factors (set to […]). Statistical significance was determined by one-way analysis of variance (ANOVA) followed by Dunnett's multiple comparison test, *≤0.05, **p ≤ 0.01, ***p ≤ 0.001.
smiles,measurement,setting,value
"CCO[C@@H](Cc1ccc(OCCc2ccc(OS(C)(=O)=O)cc2)cc1)C(=O)O [tesa, tesaglitazar]",serum leptin concentration,Serum leptin,no significant effect
same,transcriptional activity in absence of PPARγ,"PPARγ; 100 μM, HEK293 NPY1R without PPARγ transfection",complete loss of transcriptional activity
same,transcriptional activity in absence of NPY1R,"PPARγ; 100 μM, HEK293 without NPY1R, with PPARγ",not influenced by NPY1R expression
same,concentration-response curve / potency in reporter assay,"PPARγ; HEK293 NPY1R, PPARγ, RXRα, 24 h",demonstrated a saturation curve
same,relative transcriptional activity (luciferase),"PPARγ; HEK293 stably expressing NPY1R, transfected with PPAR reporter, PPARγ, RXRα, 24 h treatment, n ≥ 3",Concentration-dependent luciferase activity was detected
